Inconclusive results and toxic doses are left out. Cut-off read from the data, not from the text of the source: active = T/C of 150% or more; inactive = T/C below 125%.
Tested on: L1210 leukemia ip in BDF1 mice, survival T/C
Assay: NCI In Vivo Anticancer Drug Screen. Data for tumor model L1210 Leukemia (intraperitoneal) in B6D2F1 (BDF1) mice
Conditions: endpoint: mean survival time, higher = longer survival
How it was run: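 Mice bearing the transplanted tumor received compound or vehicle. Survival of the treated group was divided by that of the vehicle-treated control group to give the ratio.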

[1] = dose: 25.0 mg/kg/injection, schedule: Q04DX003 (ip), vehicle: saline with Tween-80
[2] = dose: 25.0 mg/kg/injection, schedule: Q04DX003 (ip), vehicle: saline
[3] = dose: 50.0 mg/kg/injection, schedule: Q04DX003 (ip), vehicle: saline with Tween-80
[4] = dose: 100.0 mg/kg/injection, schedule: Q01DX001 (ip), vehicle: carboxymethylcellulose (CMC)
[5] = dose: 200.0 mg/kg/injection, schedule: Q01DX001 (ip), vehicle: carboxymethylcellulose (CMC)
[6] = dose: 400.0 mg/kg/injection, schedule: Q01DX001 (ip), vehicle: carboxymethylcellulose (CMC)
[7] = dose: 100.0 mg/kg/injection, schedule: Q04DX003 (ip), vehicle: Klucel (hydroxypropylcellulose) (HPC)
[8] = dose: 200.0 mg/kg/injection, schedule: Q04DX003 (ip), vehicle: Klucel (hydroxypropylcellulose) (HPC)
[9] = dose: 400.0 mg/kg/injection, schedule: Q04DX003 (ip), vehicle: Klucel (hydroxypropylcellulose) (HPC)
[10] = dose: 100.0 mg/kg/injection, schedule: Q04DX003 (ip), vehicle: saline
[11] = dose: 200.0 mg/kg/injection, schedule: Q04DX003 (ip), vehicle: saline
[12] = dose: 400.0 mg/kg/injection, schedule: Q04DX003 (ip), vehicle: saline

Measured: T/C

CCC[P+](c1ccccc1)(c1ccccc1)c1ccccc1
inactive: dose: 3.13 mg/kg/injection, schedule: Q01DX009 (ip), vehicle: saline with Tween-80 123 % of control | dose: 3.13 mg/kg/injection, schedule: Q04DX003 (ip), vehicle: saline with Tween-80 102 % of control | dose: 5.56 mg/kg/injection, schedule: Q01DX009 (ip), vehicle: saline with Tween-80 118 % of control | dose: 6.25 mg/kg/injection, schedule: Q01DX009 (ip), vehicle: saline with Tween-80 118 % of control | dose: 6.25 mg/kg/injection, schedule: Q04DX003 (ip), vehicle: saline with Tween-80 96 % of control | dose: 8.33 mg/kg/injection, schedule: Q01DX009 (ip), vehicle: saline with Tween-80 121 % of control | dose: 9.5 mg/kg/injection, schedule: Q01DX001 (ip), vehicle: other 111 % of control | dose: 12.5 mg/kg/injection, schedule: Q01DX001 (ip), vehicle: carboxymethylcellulose (CMC) 101 % of control | dose: 12.5 mg/kg/injection, schedule: Q04DX003 (ip), vehicle: saline with Tween-80 105 % of control | dose: 12.5 mg/kg/injection, schedule: Q04DX003 (ip), vehicle: saline 100 % of control | dose: 18.75 mg/kg/injection, schedule: Q01DX009 (ip), vehicle: saline with Tween-80 120 % of control | dose: 19.0 mg/kg/injection, schedule: Q01DX001 (ip), vehicle: other 102 % of control | dose: 25.0 mg/kg/injection, schedule: Q01DX001 (ip), vehicle: carboxymethylcellulose (CMC) 104 % of control | [1] 105 % of control | [2] 108 % of control | dose: 38.0 mg/kg/injection, schedule: Q01DX001 (ip), vehicle: other 107 % of control | dose: 50.0 mg/kg/injection, schedule: Q01DX001 (ip), vehicle: carboxymethylcellulose (CMC) 99 % of control | [3] 105 % of control

Nc1ncnc2c1c(Br)cn2C1OC(CO)C(O)C1O (stereo not given)
inactive: dose: 5.0 mg/kg/injection, schedule: Q01DX001 (ip), vehicle: carboxymethylcellulose (CMC) 106 % of control

COc1ccccc1-c1ccc([N+](=O)[O-])cc1[N+](=O)[O-]
inactive: [4] 100 % of control | [5] 105 % of control | [6] 102 % of control

CCCCCCCCC(=O)NCc1ccc(O)c(OC)c1
inactive: dose: 1.56 mg/kg/injection, schedule: Q01DX009 (ip), vehicle: saline 93 % of control | dose: 3.12 mg/kg/injection, schedule: Q01DX009 (ip), vehicle: saline 101 % of control | dose: 6.25 mg/kg/injection, schedule: Q01DX009 (ip), vehicle: saline 90 % of control

Fc1ccc2[nH]c3c(c2c1)CP(c1ccccc1)CC3 (stereo not given)
inactive: [7] 100 % of control | [8] 96 % of control | [9] 105 % of control

CC(=O)OC1c2sccc2Cc2ccsc21
inactive: dose: 100.0 mg/kg/injection, schedule: Q01DX001 (ip), vehicle: saline with Tween-80 91 % of control | dose: 200.0 mg/kg/injection, schedule: Q01DX001 (ip), vehicle: saline with Tween-80 105 % of control

N#CC1CS(=O)(=O)C1
inactive: dose: 100.0 mg/kg/injection, schedule: Q01DX009 (ip), vehicle: saline 108 % of control | [10] 106 % of control | dose: 200.0 mg/kg/injection, schedule: Q01DX009 (ip), vehicle: saline 103 % of control | [11] 101 % of control | [12] 102 % of control

O=C(O)c1nccc2ccccc12
inactive: [10] 96 % of control | [11] 112 % of control | [12] 90 % of control

COC(OC)c1nc(N)[nH]c(=O)c1Cc1ccc([N+](=O)[O-])cc1
inactive: dose: 100.0 mg/kg/injection, schedule: Q01DX001 (ip), vehicle: Klucel (hydroxypropylcellulose) (HPC) 110 % of control | dose: 200.0 mg/kg/injection, schedule: Q01DX001 (ip), vehicle: Klucel (hydroxypropylcellulose) (HPC) 102 % of control | dose: 400.0 mg/kg/injection, schedule: Q01DX001 (ip), vehicle: Klucel (hydroxypropylcellulose) (HPC) 96 % of control

Cc1ccc(C)c(C(C)NC(=O)NCCCl)c1 (stereo not given)
inactive: [7] 91 % of control | [8] 88 % of control | [9] 96 % of control

Cc1ccc(N=Cc2cc(Br)cc(Br)c2O)cc1.Cc1ccc(N=Cc2cc(Br)cc(Br)c2O)cc1.[Co]
inactive: [1] 104 % of control | [3] 100 % of control | dose: 100.0 mg/kg/injection, schedule: Q04DX003 (ip), vehicle: saline with Tween-80 100 % of control

CCCCCCCC(=O)Nc1ccc(F)cc1
inactive: dose: 100.0 mg/kg/injection, schedule: Q04DX003 (ip), vehicle: acetone 95 % of control | dose: 200.0 mg/kg/injection, schedule: Q04DX003 (ip), vehicle: acetone 95 % of control | dose: 400.0 mg/kg/injection, schedule: Q04DX003 (ip), vehicle: acetone 90 % of control

IP(c1ccccc1)(c1ccccc1)(c1ccccc1)N1C2CCCCC21 (stereo not given)
inactive: dose: 0.15 mg/kg/injection, schedule: Q01DX009 (ip), vehicle: acetone 107 % of control | dose: 0.31 mg/kg/injection, schedule: Q01DX009 (ip), vehicle: acetone 115 % of control | dose: 0.62 mg/kg/injection, schedule: Q01DX009 (ip), vehicle: acetone 115 % of control | dose: 0.62 mg/kg/injection, schedule: Q01DX009 (ip), vehicle: saline 112 % of control | dose: 0.62 mg/kg/injection, schedule: Q04DX003 (ip), vehicle: saline 113 % of control | dose: 1.2 mg/kg/injection, schedule: Q01DX001 (ip), vehicle: acetone 114 % of control | dose: 1.25 mg/kg/injection, schedule: Q01DX009 (ip), vehicle: saline 104 % of control | dose: 1.25 mg/kg/injection, schedule: Q04DX003 (ip), vehicle: saline 93 % of control | dose: 2.5 mg/kg/injection, schedule: Q01DX001 (ip), vehicle: acetone 119 % of control | dose: 2.5 mg/kg/injection, schedule: Q01DX009 (ip), vehicle: saline 114 % of control

CC(C)C[CH2][Pb]([Cl])([CH2]CC(C)C)[CH2]CC(C)C
inactive: dose: 0.03 mg/kg/injection, schedule: Q04DX002 (ip), vehicle: saline 96 % of control | dose: 0.05 mg/kg/injection, schedule: Q04DX002 (ip), vehicle: saline 102 % of control | dose: 0.1 mg/kg/injection, schedule: Q04DX002 (ip), vehicle: saline 96 % of control | dose: 0.2 mg/kg/injection, schedule: Q04DX002 (ip), vehicle: other 111 % of control | dose: 0.2 mg/kg/injection, schedule: Q04DX003 (ip), vehicle: other 101 % of control | dose: 0.78 mg/kg/injection, schedule: Q04DX003 (ip), vehicle: other 95 % of control

O=[N+]([O-])c1ccc(N=Nc2ccc3c(c2)-c2ccccc2/C3=C\c2cccc([N+](=O)[O-])c2)cc1
inactive: [4] 93 % of control | [5] 96 % of control | [6] 98 % of control

COc1ccc(OC)c(NC(=O)c2cccc(F)c2)c1
inactive: dose: 100.0 mg/kg/injection, schedule: Q01DX009 (ip), vehicle: Klucel (hydroxypropylcellulose) (HPC) 97 % of control | dose: 200.0 mg/kg/injection, schedule: Q01DX009 (ip), vehicle: Klucel (hydroxypropylcellulose) (HPC) 101 % of control | dose: 400.0 mg/kg/injection, schedule: Q01DX009 (ip), vehicle: Klucel (hydroxypropylcellulose) (HPC) 100 % of control

Nc1ccc(CC(=O)NC(CCC(=O)O)C(=O)O)cc1 (stereo not given)
inactive: dose: 100.0 mg/kg/injection, schedule: Q04DX002 (ip), vehicle: saline 103 % of control | dose: 200.0 mg/kg/injection, schedule: Q04DX002 (ip), vehicle: saline 91 % of control | dose: 400.0 mg/kg/injection, schedule: Q04DX002 (ip), vehicle: saline 100 % of control

O=C1C2C3C=CC(CC3)C2S(=O)(=O)C2C3C=CC(CC3)C12 (stereo not given)
inactive: dose: 25.0 mg/kg/injection, schedule: Q04DX002 (ip), vehicle: gum acacia 96 % of control | dose: 50.0 mg/kg/injection, schedule: Q04DX002 (ip), vehicle: gum acacia 104 % of control | dose: 100.0 mg/kg/injection, schedule: Q04DX002 (ip), vehicle: gum acacia 100 % of control

CC(C)(N)Cc1ccc(Cl)cc1
inactive: [2] 111 % of control | dose: 50.0 mg/kg/injection, schedule: Q04DX003 (ip), vehicle: saline 106 % of control | [10] 104 % of control | [11] 92 % of control

CNC(=O)NO
inactive: dose: 50.0 mg/kg/injection, schedule: Q01DX Z (ip), vehicle: water 112 % of control | dose: 200.0 mg/kg/injection, schedule: Q01DX Z (ip), vehicle: water 97 % of control | dose: 400.0 mg/kg/injection, schedule: Q01DX Z (ip), vehicle: water 115 % of control
